# Reference: paper PMC6594156 (Phytotherapy research : PTR, 2015)
# Columns and labels:
# [1] = target: T1, UGT2B7 (Homo sapiens, UniProt P16662); experiment: recombinant UGT 4-MU glucuronidation, HPLC, single concentration […]; type: biochemical; details: read-out: 2B7
# T1 sequence (P16662 24-529): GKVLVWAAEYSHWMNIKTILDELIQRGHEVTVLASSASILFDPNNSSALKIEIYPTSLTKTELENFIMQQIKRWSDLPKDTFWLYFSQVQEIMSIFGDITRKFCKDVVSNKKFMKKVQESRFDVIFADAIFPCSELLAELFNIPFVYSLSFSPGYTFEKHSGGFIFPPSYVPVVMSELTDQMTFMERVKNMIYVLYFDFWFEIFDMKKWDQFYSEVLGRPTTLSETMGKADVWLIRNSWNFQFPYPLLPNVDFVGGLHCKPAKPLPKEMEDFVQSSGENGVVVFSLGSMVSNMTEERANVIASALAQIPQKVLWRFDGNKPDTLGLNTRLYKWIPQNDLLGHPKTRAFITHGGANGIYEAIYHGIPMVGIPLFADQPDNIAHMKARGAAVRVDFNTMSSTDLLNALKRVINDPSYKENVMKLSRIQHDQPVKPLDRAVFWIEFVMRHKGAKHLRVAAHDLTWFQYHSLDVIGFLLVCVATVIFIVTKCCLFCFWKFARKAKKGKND
# [2] = target: T2, UGT1A3 (Homo sapiens, UniProt P35503); experiment: as above; type: biochemical; details: read-out: 1A3
# T2 sequence (P35503 29-534): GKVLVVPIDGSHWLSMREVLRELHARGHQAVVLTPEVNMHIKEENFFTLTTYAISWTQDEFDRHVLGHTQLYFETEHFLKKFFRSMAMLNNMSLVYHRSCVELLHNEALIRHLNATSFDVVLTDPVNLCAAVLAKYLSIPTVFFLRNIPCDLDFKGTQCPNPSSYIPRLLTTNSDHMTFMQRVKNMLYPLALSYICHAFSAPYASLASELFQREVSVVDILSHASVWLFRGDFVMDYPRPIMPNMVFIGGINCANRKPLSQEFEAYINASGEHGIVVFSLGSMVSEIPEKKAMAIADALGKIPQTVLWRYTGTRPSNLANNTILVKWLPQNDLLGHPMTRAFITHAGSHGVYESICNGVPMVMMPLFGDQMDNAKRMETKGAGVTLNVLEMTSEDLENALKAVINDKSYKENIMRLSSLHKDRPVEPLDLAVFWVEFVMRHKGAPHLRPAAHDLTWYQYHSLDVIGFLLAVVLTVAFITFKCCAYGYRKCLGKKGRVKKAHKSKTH
SMILES,activity at 100 µM [1] [%],activity at 100 µM [2] [%]
COc1cc2c(c(O)c1OC)-c1c(cc(OC)c(OC)c1OC)C[C@@H](C)[C@@H](C)C2 [schisanhenol],7.9,
COc1cc2c(c(OC)c1OC)-c1c(cc(OC)c(OC)c1OC)C[C@H](C)[C@H](C)C2 [schisandrin A],,0
